Read-outs that look alike come from different tables or passages of the source.
Assays:
[1] = trolox equivalents (TE); ref Hernández-Ledesma et al. 2005; cited from earlier work
[2] = tested on: spontaneously hypertensive rats (SHRs); experiment: Antihypertensive effect in SHRs after a single oral administration (tail-cuff blood pressure); assay type: in vivo, rat; conditions: SHR, N = 6
Description: Experimental procedures were reviewed and approved by the Institutional Animal Care and Use Committee of Taipei Medical University (LAC-95-0076, LAC-97-0117, and LAC-100-0038). Male SHRs (18–28 weeks old; from National Laboratory Animal Center, Taipei, Taiwan) were housed individually in steel cages kept at 24°C under a 12-h light–dark cycle, with free access to water and a standard mouse/rat chow (Prolab® RMH2500, 5P14 Diet, PMI Nutrition International Brentwood, MO, USA). SHRs were randomly divided into 4 groups (N = 6 of each group), KTCGY or KRIHF at concentration of 10 mg/kg and 20 mg/kg was orally administered to the SHRs, and the SBP were measured after 0, 2, 4, 6, 8, and 24 h by using an indirect tail-cuff blood pressure meter (BP98-A, Softron, Tokyo, Japan). Distilled water (0.5 ml) was administered to the SHRs in the blank group. The captopril (10 mg/kg) was used as the positive control.
Figure 3 Antihypertensive activity of (A) KTCGY and (B) KRIHF on systolic blood pressure of spontaneously hypertensive rats (SHRs). KTCGY or KRIHF at concentration of 10 mg/kg and 20 mg/kg was orally administered to the SHRs (6 rats/group), and the SBP were measured after 0, 2, 4, 6, 8, and 24 h by using an indirect tail-cuff blood pressure meter (BP98-A, Softron, Tokyo, Japan). Distilled water (0.5 ml) was administered to the SHRs in the blank group. The captopril (10 mg/kg) was used as the positive control.

[3] = tested on: endothelium-intact rat thoracic aortic rings; experiment: Relaxation of phenylephrine-induced tension in endothelium-intact rat thoracic aortic rings ex vivo; design: species or system Sprague-Dawley rat
Description: (§1) Effects of four peptides and captopril on vascular tension were examined following the previous method (Wang et al. [2001]). Male Sprague–Dawley rats were killed by decapitation, and sections of the thoracic aorta between the aortic arch and the diaphragm were excised carefully and placed in a Petri dish with oxygenated Krebs’ buffer (120 mM NaCl, 4.5 mM KCl, 2.5 mM CaCl2, 1 mM MgSO4, 27 mM NaHCO3, 1 mM KH2PO4, 10 mM glucose, pH 7.4, with 95% O2, 5% CO2) and gently dissected free of fat and connective tissue. The endothelium was removed by gently rubbing the intimal layer of the vessel with a wire. The isolated aortic rings, 3 to 4 mm in length with or without the endothelium, were fixed isometrically in organ chambers under passive tension (1.8 g) for 60 min. Changes in vascular tension were recorded with a polygraph (Gould, model 2400, Valley View, OH, USA) via a force displacement transducer (Grass FT03, Quincy, MA, USA). After equilibration, the near maximal concentration was induced by PE (0.3 μM). When the rings achieved a stable tension, the acetylcholine (3 μM) was added to the bath to assess endothelial integrity. The relaxing effects of KTCGY, KTCGYKTCGY, TCGYTCGY, KRIHF, and captopril on PE (0.3 μM) pre-contracted endothelium-intact or endothelium-denuded aortic rings were examined. When PE treatments reached a steady plateau (considered as 100%), KTCGY, KTCGYKTCGY, TCGYTCGY, KRIHF, and captopril were then tested at cumulative concentrations (0.1 to 100 μM) for their ability to induce aortic ring relaxations.
(§2) Figure 2 Vasorelaxing activity of endothelium-intact and endothelium-denuded SD rat aortic rings in phenylephrine-induced tensions. (A) KTCGY, (B) KTCGYKTCGY, (C) TCGYTCGY, (D) KRIHF, and (E) captopril on Data were expressed as mean ± S.E.

[4] = tested on: endothelium-denuded rat thoracic aortic rings; experiment: Relaxation of phenylephrine-induced tension in endothelium-denuded rat thoracic aortic rings ex vivo; design: species or system Sprague-Dawley rat; conditions: PE 0.3 μM; for aortic ring relaxation in endothelium-denuded rings (in words): cumulative 0.1 to 100 μM; for PE-induced endothelium-denuded aortic ring tension (PE plateau = 100%): 100 μM test substance, endothelium-denuded rings
Description: as §1, §2

[5] = tested on: spontaneously hypertensive rats (SHRs); conditions: ref Fujita et al. 2000; cited from earlier work
Description: (§3) The untreated high blood pressure is considered to be the central factor in stroke which accounts approximately 33% deaths (Mark and Davis [2000]). There are several classes of pharmacological agents which have been used in the treatment of hypertension, and one class of antihypertensive drugs known as angiotensin I converting enzyme (ACE) inhibitors is associated with a low rate of adverse side effects and is the preferred class of antihypertensive agents when treating patients with concurrent secondary diseases or cardiovascular diseases (Zaman et al. [2002]). ACE (peptidyldipeptide hydr ...

ACE = conditions: read-out: ACE inhibition IC50, cited from earlier work
Description: as §3, with “[2002]).” for “[2002]). ACE (peptidyldipeptide hydr ...”

ACE (rabbit lung) = experiment: ACE inhibitory assay screening (FAPGG substrate, absorbance at 345 nm); assay type: biochemical; conditions: peptide 40 μM; 0.5 mM FAPGG in 50 mM Tris-HCl pH 7.5, 0.3 M NaCl; 90 sec, room temperature
Description: The ACE inhibitory activity was measured following the previous reports with some modifications (Hsu et al. [2002]). Each synthesized peptide was dissolved in DMSO to 4 mM as stocks. The 1 ml, 0.5 mM FAPGG (dissolved in 50 mM Tris–HCl buffer, pH 7.5, containing 0.3 M NaCl) was mixed with 12.2 μl peptide solution, and then twenty μl ([…]) of commercial ACE (stock solution, 1U/ ml) was added. The 0.1% DMSO solution was used instead of sample solution for blank experiments (ΔAblank/min). The decreased absorbance at 345 nm (ΔAsample/min) was recorded during 90 sec at room temperature. The ACE inhibition (%) was calculated as followed: [1 - (ΔAsample/min ÷ ΔAblank/min)] × 100.
Figure 1 ACE inhibition by 23 synthesized peptides (40 μM) derived from a computer-aided simulation of pepsin hydrolysis of yam dioscorin. The 0.1% DMSO solution was used instead of sample solution for blank experiments (ΔAblank/min). The decreased absorbance at 345 nm (ΔAsample/min) was recorded during 90 sec at room temperature. The ACE inhibition (%) was calculated as followed: [1 - (ΔAsample/min ÷ ΔAblank/min)] × 100. The synthesized peptides included (1) KTCGNGME, (2) PPCSE, (3) CDDRVIRTPLT, (4) KTCGY, (5) PPCTE, (6) RDNGVIF, (7) KRIHF, (8) RRDY, (9) RSVF, (10) PTNF, (11) GISW, (12) MGSF, (13) VSIL, (14) HSPA, (15) DPF, (16) RY, (17) RF, (18) NW, (19) RL, (20) GVI, (21) GSL, (22) SY, and (23) GPA. […]

[6] = tested on: spontaneously hypertensive rats (SHRs); experiment: Antihypertensive effect in SHRs after a single oral administration (tail-cuff blood pressure); assay type: in vivo, rat; conditions: 10 and 20 mg/kg single oral dose, SHR; data not shown
[7] = 100 μM test substance, PE 0.3 μM, endothelium-intact rings, mean ± S.E. (Figure 2), SEM

## N[C@@H](CS)C(=O)O [Cys]
[1]
  oxygen radical absorbance capacity (ORAC) activity: 0.1492 μmole TE/μmole

## N[C@@H](Cc1c[nH]cn1)C(=O)O [His]
[1]
  oxygen radical absorbance capacity (ORAC) activity: 0.073 μmole TE/μmole

## CSCC[C@H](N)C(=O)O [Met]
[1]
  oxygen radical absorbance capacity (ORAC) activity: 1.126 μmole TE/μmole

## N[C@@H](Cc1ccccc1)C(=O)O [Phe]
[1]
  oxygen radical absorbance capacity (ORAC) activity: 0.0025 μmole TE/μmole

## N[C@@H](Cc1c[nH]c2ccccc12)C(=O)O [Trp]
[1]
  oxygen radical absorbance capacity (ORAC) activity: 4.649 μmole TE/μmole

## N[C@@H](Cc1ccc(O)cc1)C(=O)O [Tyr]
[1]
  oxygen radical absorbance capacity (ORAC) activity: 1.574 μmole TE/μmole

## C[C@H](CS)C(=O)N1CCC[C@H]1C(=O)O [captopril, reference compound]
[2]; 10 mg/kg single oral dose, 2-h
  average reduced SBP: 26.85 mmHg
[2]; 10 mg/kg single oral dose, 4-h
  average reduced SBP: 24.97 mmHg
[2]; 10 mg/kg single oral dose, 6-h
  average reduced SBP: 29.82 mmHg
[2]; 10 mg/kg single oral dose, 8-h
  average reduced SBP: 24 mmHg
[2]; 10 mg/kg single oral dose, 24-h
  average reduced SBP: 13.80 mmHg
[3]; 100 µM, SEM
  PE-induced aortic ring tension (PE plateau = 100%): 26.81 ± 5.54%
[4]
  aortic ring relaxation in endothelium-denuded rings (in words): not endothelium-denuded

## ERKIKVYL
[5]
  reduction of blood pressure in SHRs (in words): none of them were effective
ACE; ref Fujita et al. 2000
  IC50: 1.2 µM

## FFGRCVSP
[5]
  reduction of blood pressure in SHRs (in words): none of them were effective
ACE; ref Fujita et al. 2000
  IC50: 0.4 µM

## KRIHF [penta-peptide, residues 118–122 of dioscorin A and dioscorin B]
ACE (rabbit lung)
  ACE inhibition (%): higher than 50%
[2]; 10 mg/kg single oral dose, 2-h
  average reduced SBP: 17.30 mmHg
[2]; 10 mg/kg single oral dose, 4-h
  average reduced SBP: 21.95 mmHg
[2]; 10 mg/kg single oral dose, 6-h
  average reduced SBP: 21.47 mmHg
[2]; 10 mg/kg single oral dose, 8-h
  average reduced SBP: 16.65 mmHg
[2]; 20 mg/kg single oral dose, 2-h
  average reduced SBP: 18.57 mmHg
[2]; 20 mg/kg single oral dose, 4-h
  average reduced SBP: 19.64 mmHg
[2]; 20 mg/kg single oral dose, 6-h
  average reduced SBP: 20.87 mmHg
[2]; 20 mg/kg single oral dose, 8-h
  average reduced SBP: 8.99 mmHg
[3]; 10 μM test substance, PE 0.3 μM, endothelium-intact rings
  PE-induced aortic ring tension (PE plateau = 100%): 80.26 ± 7.82%
[3]; [7]
  PE-induced aortic ring tension (PE plateau = 100%): 19.19 ± 7.63%
[6]
  lowering of diastolic blood pressure (in words): not diastolic blood pressure
[4]
  aortic ring relaxation in endothelium-denuded rings (in words): not endothelium-denuded

## KTCGY [penta-peptide, residues 52–56 of dioscorin B]
ACE (rabbit lung)
  ACE inhibition (%): higher than 50%
[2]; 10 mg/kg single oral dose, 6-h
  average reduced SBP: 24.17 mmHg
[2]; 10 mg/kg single oral dose, 8-h
  average reduced SBP: 11.93 mmHg
[2]; 20 mg/kg single oral dose, 2-h
  average reduced SBP: 24.20 mmHg
[2]; 20 mg/kg single oral dose, 4-h
  average reduced SBP: 26.24 mmHg
[2]; 20 mg/kg single oral dose, 6-h
  average reduced SBP: 31.03 mmHg
[2]; 20 mg/kg single oral dose, 8-h
  average reduced SBP: 21.40 mmHg
[3]; [7]
  PE-induced aortic ring tension (PE plateau = 100%): 26.97 ± 7.48%
[6]
  lowering of diastolic blood pressure (in words): not diastolic blood pressure
[4]
  aortic ring relaxation in endothelium-denuded rings (in words): not endothelium-denuded

## KTCGYKTCGY [two-repeated KTCGY]
[3]; [7]
  PE-induced aortic ring tension (PE plateau = 100%): 46.05 ± 8.02%
[4]
  PE-induced endothelium-denuded aortic ring tension (PE plateau = 100%): 66.59 ± 14.84%

## RADHPF [ovokinin (2–7), hexa-peptide isolated from chymotryptic ovalbumin hydrolysates]
ACE; ref Matoba et al. 1999
  IC50: > 1000 µM

## TCGYTCGY [two-repeated TCGY]
[3]; [7]
  PE-induced aortic ring tension (PE plateau = 100%): 43.52 ± 6.42%
[4]
  PE-induced endothelium-denuded aortic ring tension (PE plateau = 100%): 74.44 ± 15.13%

— publication PMC5432742, “Vasorelaxing and antihypertensive activities of synthesized peptides derived from computer-aided simulation of pepsin hydrolysis of yam dioscorin” (Botanical Studies, 2014)
